Patent publication US10307355B2, “N-aralkylcarbonyldiamine compounds and personal care compositions comprising the same” (Conopco, Inc., priority 2015, dated 2019)

Biological target: T1, human M3 receptor (Homo sapiens, UniProt P20309)
T1 construct: expressed in transfected cells; host or cells: CHO cells (membrane suspension)
Assay: Muscarinic 3 receptor binding assay (3H-scopolamine displacement, CHO cell membranes)
Details: inhibition of 3H-scopolamine binding to CHO cell suspension expressing the human M3 receptor
Procedure: The muscarinic 3 receptor binding assay was adapted from Perkin Elmer. […] Atropine (Sigma-Aldrich, St. Louis, Mo.) was used as a positive control. […] The binding reactions were terminated by filtering through the GFC plates and washing & filtering with ice-cold phosphate saline buffer (5×100 μL). Once the filters were dry, microscint scintillation cocktail (100 μL) was added to each well, allowed to sit for 20 min and the plates analyzed using a TopCount scintillation counter. […] Curve fitting of % inhibition versus concentration using Excell software allowed determination of IC50 values for test compounds.

T1 sequence (P20309 whole entry): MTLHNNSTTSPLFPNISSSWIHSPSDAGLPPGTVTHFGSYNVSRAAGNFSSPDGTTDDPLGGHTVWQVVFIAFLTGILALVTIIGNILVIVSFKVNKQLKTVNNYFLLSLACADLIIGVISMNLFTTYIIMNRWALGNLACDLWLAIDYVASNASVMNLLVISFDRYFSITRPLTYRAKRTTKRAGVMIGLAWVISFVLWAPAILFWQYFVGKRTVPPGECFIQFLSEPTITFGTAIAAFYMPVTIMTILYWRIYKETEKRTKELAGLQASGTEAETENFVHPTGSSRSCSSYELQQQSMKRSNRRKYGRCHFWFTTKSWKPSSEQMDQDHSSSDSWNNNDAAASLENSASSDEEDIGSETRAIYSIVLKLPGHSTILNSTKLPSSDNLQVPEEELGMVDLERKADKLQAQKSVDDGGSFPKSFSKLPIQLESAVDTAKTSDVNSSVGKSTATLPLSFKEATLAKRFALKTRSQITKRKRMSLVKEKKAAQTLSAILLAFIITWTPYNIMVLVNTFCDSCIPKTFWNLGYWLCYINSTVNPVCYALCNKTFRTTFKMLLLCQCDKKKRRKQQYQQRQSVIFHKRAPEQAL

IC50: 3.3 µM
SMILES: CN(C)CCN(C)C(=O)C(c1ccccc1)C1CCCC1 (stereo not shown) [Compound 3c]
